PMC3289549 (Biochemistry, 2011)
“Also recorded” adds a separate entry of the source. Where two headings read alike, the source gives them in different places.

Key:
Pin1 [1] = target: T1, Pin1 (Homo sapiens, UniProt Q13526); test: α-chymotrypsin protease-coupled Pin1 inhibition assay; type: biochemical; settings: for IC50: protease-coupled assay, substrate succinyl–Ala–Glu–cis-Pro–Phe–pNA, 4 °C, duplicate
Aqueous solubility = type: physicochemical; settings: qualitative
Pin1 [2] = target: T1, Pin1; settings: cited from earlier work
Pin1 [3] = target: T1, Pin1; settings: cited from earlier work; remark: listed apart in the source

T1 sequence (Q13526 whole entry): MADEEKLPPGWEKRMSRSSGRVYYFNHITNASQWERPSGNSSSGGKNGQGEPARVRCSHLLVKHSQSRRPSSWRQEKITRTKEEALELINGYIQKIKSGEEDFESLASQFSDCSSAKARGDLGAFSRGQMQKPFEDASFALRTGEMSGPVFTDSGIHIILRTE

Which IC50 (Pin1 [1]) does the source give for `CC(=O)N[C@@H](COP(=O)(O)O)CN1CCCCC1C(=O)NCCc1c[nH]c2ccccc12` (mixture of isomers) [Compound 4a, Ac–pSer–Ψ[CH2N]-(R/S)Pip ^a–tryptamine] here?
The IC50 was 16 ± 2 µM.

And the “fold more potent than diastereomer 4b” value (Pin1 [1]; ratio of IC50 values vs 4b)?
The value was “approximately 12 fold”.

With `CC(=O)N[C@@H](COP(=O)(O)O)CN1CCCCC1C(=O)NCCc1c[nH]c2ccccc12` (mixture of isomers) [Compound 4b, Ac–pSer–Ψ[CH2N]-(R/S)Pip ^a–tryptamine] as the molecule, how does the IC50 (Pin1 [1]) read?
Its IC50 is 189 ± 17 µM.

Which IC50 (Pin1 [1]) does the source give for `O=C(N[C@@H](COP(=O)(O)O)CN1CCC[C@H]1C(=O)NCCc1c[nH]c2ccccc12)OCC1c2ccccc2-c2ccccc21` [Compound 1, Fmoc–pSer–Ψ[CH2N]-Pro–tryptamine] here?
Its IC50 is 6.3 ± 0.4 µM.

And the “fold better inhibition than compound 3” value (Pin1 [1]; ratio of IC50 values vs 3)?
The value was 5 fold.

What about the aqueous solubility (Aqueous solubility) of the same molecule?
Its aqueous solubility is “very poor”.

Which IC50 (Pin1 [1]) does the source give for `CC(OP(=O)(O)O)C(CN1CCCC1C(=O)NCCc1c[nH]c2ccccc12)NC(=O)OCC1c2ccccc2-c2ccccc21` (stereo not shown) [Compound 3, Fmoc–pThr–Ψ[CH2N]-Pro–tryptamine] here?
The IC50 was 30 ± 2 µM.

Which IC50 (Pin1 [2]; similarly substituted ground-state (cis-alkene) analogue) does the source give for `O=C(NC(C=C1CCCC1C(=O)NCCc1c[nH]c2ccccc12)COP(=O)(O)O)OCC1c2ccccc2-c2ccccc21` (stereo not shown) [Fmoc-pSer–Ψ[(Z)CH=C]Pro–2-(indol-3-yl)-ethylamine] here?
The IC50 was 28.3 µM.

For “Ac–Lys(N-biotinoyl)–Ala–Ala–Bth–D-Thr(PO3H2)–Pip–Nal–Gln–NH2”, which Ki (Pin1 [3]) is on record?
Its Ki is 0.00021 µM.

Which IC50 (Pin1 [1]) does the source give for “Ac–pSer–Ψ[CH2N]-Pro–tryptamine [Compound 2]” here?
The IC50 was 12 ± 2 µM.

And the “fold less potent than inhibitor 1” value (Pin1 [1]; ratio of IC50 values vs 1)?
Its value is 2 fold.

What about the “fold better than the similarly substituted ketone” value (Pin1 [1]; ratio of IC50 values vs Ac–pSer–Ψ[COCH]-Pip–2-(indol-3-yl)-ethylamine) of the same molecule?
Its value is 5 fold.

And the “fold better than the similarly substituted α-ketoamide inhibitor” value (Pin1 [1]; ratio of IC50 values vs Ac–pSer–Ψ[COCON]-Pro–2-(naphth-2-yl)-ethylamine)?
Its value is 6 fold.

And the aqueous solubility (Aqueous solubility)?
Its aqueous solubility is “improved aqueous solubility; also recorded: improved the water solubility”.

For “Ac–pSer–Ψ[COCH]-Pip–2-(indol-3-yl)-ethylamine”, which IC50 (Pin1 [2]; similarly substituted ketone) is on record?
Its IC50 is 61 µM.

For “Ac–pSer–Ψ[COCON]-Pro–2-(naphth-2-yl)-ethylamine”, which IC50 (Pin1 [2]; similarly substituted α-ketoamide inhibitor) is on record?
The IC50 was 100 µM.
